Assay results as given in PubChem BioAssay (NCI).
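Five concentrations, 48 hours, 96-well plates. TGI is the concentration that stops growth completely.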

How the values were obtained:
Experiment in all cases: NCI anticancer screen, dose series, 48 h
KM12 colon = system: KM12 colon
OVCAR-3 ovarian = system: OVCAR-3 ovarian
CAKI-1 renal = system: CAKI-1 renal
SF-295 CNS = system: SF-295 CNS
ACHN renal = system: ACHN renal
NCI-H460 lung = system: NCI-H460 lung
DLD-1 colon = system: DLD-1 colon
LOX IMVI melanoma = system: LOX IMVI melanoma
UACC-62 melanoma = system: UACC-62 melanoma
M19-MEL melanoma = system: M19-MEL melanoma
DMS 273 small cell lung = system: DMS 273 small cell lung
OVCAR-8 ovarian = system: OVCAR-8 ovarian
HCT-15 colon = system: HCT-15 colon
SF-268 CNS = system: SF-268 CNS
M14 melanoma = system: M14 melanoma
U251 CNS = system: U251 CNS
IGROV1 ovarian = system: IGROV1 ovarian
NCI-H522 lung = system: NCI-H522 lung
KM20L2 colon = system: KM20L2 colon
NCI-H226 lung = system: NCI-H226 lung
HCC-2998 colon = system: HCC-2998 colon
MOLT-4 leukemia = system: MOLT-4 leukemia
RXF 393 renal = system: RXF 393 renal
A549 NSCLC = system: A549 NSCLC
NCI-H23 lung = system: NCI-H23 lung
EKVX NSCLC = system: EKVX NSCLC
SNB-19 CNS = system: SNB-19 CNS
HOP-18 NSCLC = system: HOP-18 NSCLC
HOP-92 NSCLC = system: HOP-92 NSCLC
MALME-3M melanoma = system: MALME-3M melanoma
COLO 205 colon = system: COLO 205 colon
TK-10 renal = system: TK-10 renal
SK-MEL-5 melanoma = system: SK-MEL-5 melanoma
OVCAR-5 ovarian = system: OVCAR-5 ovarian
SK-MEL-28 melanoma = system: SK-MEL-28 melanoma
A498 renal = system: A498 renal
RPMI-8226 leukemia = system: RPMI-8226 leukemia
SK-OV-3 ovarian = system: SK-OV-3 ovarian
XF 498 CNS = system: XF 498 CNS
LXFL 529 NSCLC = system: LXFL 529 NSCLC
SK-MEL-2 melanoma = system: SK-MEL-2 melanoma
SW-620 colon = system: SW-620 colon
786-0 renal = system: 786-0 renal
HT29 colon = system: HT29 colon
UO-31 renal = system: UO-31 renal
CCRF-CEM leukemia = system: CCRF-CEM leukemia
SNB-75 CNS = system: SNB-75 CNS
OVCAR-4 ovarian = system: OVCAR-4 ovarian
UACC-257 melanoma = system: UACC-257 melanoma
HL-60(TB) leukemia = system: HL-60(TB) leukemia
SF-539 CNS = system: SF-539 CNS
K-562 leukemia = system: K-562 leukemia
SN12C renal = system: SN12C renal
SR leukemia = system: SR leukemia
HOP-62 NSCLC = system: HOP-62 NSCLC
HCT-116 colon = system: HCT-116 colon
DMS 114 small cell lung = system: DMS 114 small cell lung
SNB-78 CNS = system: SNB-78 CNS

## O=C(O)CCCNS(=O)(=O)c1ccccc1
KM12 colon
  TGI: > 100 µM
OVCAR-3 ovarian
  TGI: > 100 µM
CAKI-1 renal
  TGI: > 100 µM
SF-295 CNS
  TGI: > 100 µM
ACHN renal
  TGI: > 100 µM
NCI-H460 lung
  TGI: > 100 µM
DLD-1 colon
  TGI: > 100 µM
LOX IMVI melanoma
  TGI: > 100 µM
UACC-62 melanoma
  TGI: > 100 µM
M19-MEL melanoma
  TGI: > 100 µM
DMS 273 small cell lung
  TGI: > 100 µM
OVCAR-8 ovarian
  TGI: > 100 µM
HCT-15 colon
  TGI: > 100 µM
SF-268 CNS
  TGI: > 100 µM
M14 melanoma
  TGI: > 100 µM
U251 CNS
  TGI: > 100 µM
IGROV1 ovarian
  TGI: > 100 µM
NCI-H522 lung
  TGI: > 100 µM
KM20L2 colon
  TGI: > 100 µM
NCI-H226 lung
  TGI: > 100 µM
HCC-2998 colon
  TGI: > 100 µM
MOLT-4 leukemia
  TGI: > 100 µM
RXF 393 renal
  TGI: > 100 µM
A549 NSCLC
  TGI: > 100 µM
NCI-H23 lung
  TGI: > 100 µM
EKVX NSCLC
  TGI: > 100 µM
SNB-19 CNS
  TGI: > 100 µM
HOP-18 NSCLC
  TGI: > 100 µM
HOP-92 NSCLC
  TGI: > 100 µM
MALME-3M melanoma
  TGI: > 100 µM
COLO 205 colon
  TGI: > 100 µM
TK-10 renal
  TGI: > 100 µM
SK-MEL-5 melanoma
  TGI: > 100 µM
OVCAR-5 ovarian
  TGI: > 100 µM
SK-MEL-28 melanoma
  TGI: > 100 µM
A498 renal
  TGI: > 100 µM
RPMI-8226 leukemia
  TGI: > 100 µM
SK-OV-3 ovarian
  TGI: > 100 µM
XF 498 CNS
  TGI: > 100 µM
LXFL 529 NSCLC
  TGI: > 100 µM
SK-MEL-2 melanoma
  TGI: > 100 µM
SW-620 colon
  TGI: > 100 µM
786-0 renal
  TGI: > 100 µM
HT29 colon
  TGI: > 100 µM
UO-31 renal
  TGI: > 100 µM
CCRF-CEM leukemia
  TGI: > 100 µM
SNB-75 CNS
  TGI: > 100 µM
OVCAR-4 ovarian
  TGI: > 100 µM
UACC-257 melanoma
  TGI: > 100 µM
HL-60(TB) leukemia
  TGI: > 100 µM
SF-539 CNS
  TGI: > 100 µM
K-562 leukemia
  TGI: > 100 µM
SN12C renal
  TGI: > 100 µM

## Cc1cc([N+](=O)[O-])ccc1Sc1c2ccccc2nc2ccccc12
KM12 colon
  TGI: 32.7 µM
OVCAR-3 ovarian
  TGI: > 100 µM
CAKI-1 renal
  TGI: 97.3 µM
SF-295 CNS
  TGI: > 100 µM
ACHN renal
  TGI: > 100 µM
NCI-H460 lung
  TGI: > 100 µM
DLD-1 colon
  TGI: > 100 µM
LOX IMVI melanoma
  TGI: 38.6 µM
UACC-62 melanoma
  TGI: 66.8 µM
DMS 273 small cell lung
  TGI: > 100 µM
OVCAR-8 ovarian
  TGI: 84.4 µM
HCT-15 colon
  TGI: 57.2 µM
SF-268 CNS
  TGI: > 100 µM
M14 melanoma
  TGI: > 100 µM
U251 CNS
  TGI: 78.9 µM
IGROV1 ovarian
  TGI: > 100 µM
SR leukemia
  TGI: 70.1 µM
NCI-H522 lung
  TGI: 38.9 µM
KM20L2 colon
  TGI: 89.8 µM
NCI-H226 lung
  TGI: > 100 µM
HCC-2998 colon
  TGI: 56.1 µM
MOLT-4 leukemia
  TGI: 73.1 µM
RXF 393 renal
  TGI: > 100 µM
A549 NSCLC
  TGI: > 100 µM
NCI-H23 lung
  TGI: 79.2 µM
EKVX NSCLC
  TGI: > 100 µM
SNB-19 CNS
  TGI: > 100 µM
HOP-18 NSCLC
  TGI: > 100 µM
HOP-92 NSCLC
  TGI: 98.2 µM
MALME-3M melanoma
  TGI: > 100 µM
COLO 205 colon
  TGI: > 100 µM
HOP-62 NSCLC
  TGI: > 100 µM
TK-10 renal
  TGI: > 100 µM
SK-MEL-5 melanoma
  TGI: > 100 µM
OVCAR-5 ovarian
  TGI: > 100 µM
SK-MEL-28 melanoma
  TGI: > 100 µM
A498 renal
  TGI: > 100 µM
SK-OV-3 ovarian
  TGI: > 100 µM
XF 498 CNS
  TGI: 50 µM
LXFL 529 NSCLC
  TGI: 45.5 µM
SK-MEL-2 melanoma
  TGI: 55.9 µM
SW-620 colon
  TGI: > 100 µM
786-0 renal
  TGI: 55.5 µM
UO-31 renal
  TGI: > 100 µM
HCT-116 colon
  TGI: 66.6 µM
CCRF-CEM leukemia
  TGI: 79.5 µM
SNB-75 CNS
  TGI: > 100 µM
OVCAR-4 ovarian
  TGI: > 100 µM
UACC-257 melanoma
  TGI: 71.3 µM
HL-60(TB) leukemia
  TGI: 49.1 µM
SF-539 CNS
  TGI: 56.5 µM
K-562 leukemia
  TGI: > 100 µM
SN12C renal
  TGI: 93.3 µM

## COC(=O)C1CCC2(C)[C@H](CCC3O[C@]32C)[C@@]1(C)CC(=O)c1ccoc1 (some centres undefined)
KM12 colon
  TGI: > 100 µM
OVCAR-3 ovarian
  TGI: > 100 µM
CAKI-1 renal
  TGI: > 100 µM
SF-295 CNS
  TGI: > 100 µM
ACHN renal
  TGI: > 100 µM
NCI-H460 lung
  TGI: > 100 µM
DLD-1 colon
  TGI: > 100 µM
LOX IMVI melanoma
  TGI: > 100 µM
UACC-62 melanoma
  TGI: > 100 µM
M19-MEL melanoma
  TGI: > 100 µM
DMS 114 small cell lung
  TGI: > 100 µM
DMS 273 small cell lung
  TGI: > 100 µM
OVCAR-8 ovarian
  TGI: > 100 µM
HCT-15 colon
  TGI: > 100 µM
SF-268 CNS
  TGI: > 100 µM
M14 melanoma
  TGI: > 100 µM
U251 CNS
  TGI: > 100 µM
IGROV1 ovarian
  TGI: > 100 µM
SR leukemia
  TGI: > 100 µM
NCI-H522 lung
  TGI: > 100 µM
KM20L2 colon
  TGI: > 100 µM
NCI-H226 lung
  TGI: > 100 µM
HCC-2998 colon
  TGI: > 100 µM
MOLT-4 leukemia
  TGI: > 100 µM
RXF 393 renal
  TGI: > 100 µM
A549 NSCLC
  TGI: > 100 µM
NCI-H23 lung
  TGI: > 100 µM
EKVX NSCLC
  TGI: > 100 µM
SNB-19 CNS
  TGI: > 100 µM
MALME-3M melanoma
  TGI: > 100 µM
COLO 205 colon
  TGI: > 100 µM
HOP-62 NSCLC
  TGI: > 100 µM
TK-10 renal
  TGI: > 100 µM
SK-MEL-5 melanoma
  TGI: > 100 µM
OVCAR-5 ovarian
  TGI: > 100 µM
SK-MEL-28 melanoma
  TGI: > 100 µM
A498 renal
  TGI: > 100 µM
RPMI-8226 leukemia
  TGI: > 100 µM
SK-OV-3 ovarian
  TGI: > 100 µM
XF 498 CNS
  TGI: > 100 µM
LXFL 529 NSCLC
  TGI: > 100 µM
SW-620 colon
  TGI: > 100 µM
786-0 renal
  TGI: > 100 µM
UO-31 renal
  TGI: > 100 µM
HCT-116 colon
  TGI: > 100 µM
CCRF-CEM leukemia
  TGI: > 100 µM
SNB-78 CNS
  TGI: > 100 µM
OVCAR-4 ovarian
  TGI: > 100 µM
UACC-257 melanoma
  TGI: > 100 µM
HL-60(TB) leukemia
  TGI: > 100 µM
SF-539 CNS
  TGI: > 100 µM
K-562 leukemia
  TGI: > 100 µM
SN12C renal
  TGI: > 100 µM
